Laboratory results taken from article PMC10512030, “Prolidase-proline oxidase axis is engaged in apoptosis induction by birch buds flavonol santin in endometrial adenocarcinoma cell line” (Frontiers in Molecular Biosciences, 2023).
Where two headings read alike, the source gives them in different places.

Key:
Format in all cases: cell-based, human
p53 = assay: Western immunoblot of p53 in treated cells; conditions: 48 h; for expression of p53 (Western blot): Ishikawa cells
Protocol: Adherent and floating cells were harvested and sonicated. Obtained homogenates were supplemented with 1% protease and phosphatase inhibitor cocktail (#78440, Thermo Fisher Scientific). The Lowry assay was performed to quantify protein content in the homogenates. Proteins (20–40 μg) were resolved on 7.5%, 10%, or 12% SDS-PAGE gels using the Mini-Protean Tetra system (Bio-Rad). Proteins were transferred to nitrocellulose membranes (Bio-Rad) using the Mini Trans-Blot Cell wet blotting system (Bio-Rad). Membranes were blocked with 5% skim milk for 1 h at room temperature and probed overnight at 4°C with primary antibodies. The following antibodies purchased from Cell Signaling Technology were used: anti-caspase-9 antibody (#9508, 1:1,000), anti-caspase-8 antibody (#9746, 1:1,000), anti-caspase-3 antibody (#9662, 1:1,000), anti-caspase-7 antibody (#12827, 1:1,000), anti-PARP antibody (#9542, 1:1,000) and anti-cleaved PARP antibody (#5625, 1:1,000); anti-proline oxidase antibody (sc-376401, 1:1,000) and anti-p53 antibody (sc-126, 1:500) were obtained from Santa Cruz Biotechnology; anti-prolidase antibody (STJ27369, 1:1,000) was purchased from St John’s Laboratory and anti-actin antibody (#A2066, 1:2,000) was obtained from Sigma-Aldrich. After extensive washes, a secondary antibody solution in 5% skim milk (anti-mouse IgG-HRP, Sigma-Aldrich, #A9044, 1:5,000 or anti-rabbit IgG-HRP, Sigma-Aldrich, #A9169, 1:5000) was added for 1 h at room temperature. Membranes were incubated with ECL-HRP substrate (GE Healthcare), and the signal was detected using the BioSpectrum Imaging System (Ultra-Violet Products, Ltd.). Intensity of the bands was quantified by densitometric analysis using VisionWorks LS software (Ultra-Violet Products, Ltd.).

[1] = tested on: cervical adenocarcinoma HeLa cells; assay: Cell viability neutral red uptake assay, HeLa; conditions: Homo sapiens
proline oxidase = assay: Western immunoblot of proline oxidase in treated cells; conditions: 48 h
Protocol: (§1) Adherent and floating cells were harvested and sonicated. Obtained homogenates were supplemented with 1% protease and phosphatase inhibitor cocktail (#78440, Thermo Fisher Scientific). The Lowry assay was performed to quantify protein content in the homogenates. Proteins (20–40 μg) were resolved on 7.5%, 10%, or 12% SDS-PAGE gels using the Mini-Protean Tetra system (Bio-Rad). Proteins were transferred to nitrocellulose membranes (Bio-Rad) using the Mini Trans-Blot Cell wet blotting system (Bio-Rad). Membranes were blocked with 5% skim milk for 1 h at room temperature and probed overnight at 4°C with primary antibodies. […] Membranes were incubated with ECL-HRP substrate (GE Healthcare), and the signal was detected using the BioSpectrum Imaging System (Ultra-Violet Products, Ltd.). Intensity of the bands was quantified by densitometric analysis using VisionWorks LS software (Ultra-Violet Products, Ltd.).

[2] = tested on: cervical adenocarcinoma HeLa cells; assay: Cell viability MTT assay, HeLa; conditions: Homo sapiens, HeLa, HeLa
[3] = tested on: normal fibroblasts (dermal fibroblasts CCD25Sk); assay: Cell viability MTT assay, fibroblasts; conditions: Homo sapiens, Fibroblast, Fibroblasts, read-out: IC50 values ± SD in MTT assay
prolidase [4] = assay: Prolidase activity in homogenates of treated cells; conditions: 48 h
Protocol: The activity of prolidase in cell homogenates was determined according to the method of ([Myara et al., 1982]). Briefly, prolidase was activated by overnight incubation of homogenates with 1 mM MnCl2 at 37°C. Then, the substrate (Gly-Pro, 100 mM) was added to each sample, followed by incubation at 37°C for 1 h. The reaction was stopped with […] trichloracetic acid and samples were then centrifuged at 15,000 × g for 10 min. After adding acetic acid and Chinard’s reagent to collected supernatant, the mixtures were incubated at 90°C for 10 min. Samples were allowed to come to room temperature and then absorbance was measured at 515 nm. Enzyme activity was reported as nanomoles of proline released from the synthetic substrate during 1 min/mg of total proteins of cell homogenate.

intracellular ROS = assay: Analysis of intracellular ROS with DCFDA; conditions: santin 1 h
Protocol: The oxidation-sensitive dye, 2′, 7′-dichlorofluorescein diacetate (DCFDA, D6883, Sigma-Aldrich), was used to determine the formation of intracellular ROS. Assay is based on the diffusion of DCFDA into the cell, where it is deacetylated by cellular esterases to a non-fluorescent compound, which is later oxidised by ROS into highly fluorescent 2′, 7′-dichlorofluorescein. […] Cells were treated with santin at concentrations of 6.2, 12.5, and 25 μM for 1, 24, or 48 h. Culture medium was discarded and the cells were washed with PBS and incubated with 10 μM DCFDA at 37°C for 30 min. Cell images were taken with fluorescence microscope.

[5] = tested on: endometrial adenocarcinoma Ishikawa cells; assay: Cell viability MTT assay, Ishikawa; conditions: Homo sapiens
HeLa cells [6] = assay: Apoptosis assay, annexin V-FITC / propidium iodide flow cytometry, HeLa; conditions: 48 h
Ishikawa cells [7] = assay: Colony formation assay, Ishikawa; conditions: then fresh medium 7 days
Ishikawa cells [8] = assay: Apoptosis assay, annexin V-FITC / propidium iodide flow cytometry, Ishikawa; conditions: 48 h
HeLa cells [9] = assay: Colony formation assay, HeLa; conditions: then fresh medium 7 days
[10] = tested on: breast epithelial cells MCF 10A; assay: Cell viability MTT assay, MCF 10A; conditions: Homo sapiens, 48 h
prolidase [11] = assay: Western immunoblot of prolidase in treated cells; conditions: santin, 48 h
Protocol: as §1

[12] = tested on: endometrial adenocarcinoma Ishikawa cells; assay: Cell viability neutral red uptake assay, Ishikawa; conditions: Homo sapiens
[13] = 24 h, NAC treated (2 mM N-acetyl-L-cysteine preincubation 2 h), read-out: IC50, neutral red uptake assay
[14] = 24 h, read-out: IC50 values ± SD in neutral red uptake assay
[15] = 24 h, without NAC, read-out: IC50, neutral red uptake assay
[16] = 48 h, NAC treated (2 mM N-acetyl-L-cysteine preincubation 2 h), read-out: IC50, neutral red uptake assay
[17] = 48 h, read-out: IC50 values ± SD in neutral red uptake assay
[18] = 48 h, without NAC, read-out: IC50, neutral red uptake assay
[19] = 48 h, negative control siRNA transfected cells, 48 h, read-out: IC50, MTT assay
[20] = 48 h, non-transfected cells, 48 h, read-out: IC50, MTT assay
[21] = 48 h, p53-silenced cells, 48 h, read-out: IC50, MTT assay
[22] = 48 h, prolidase-silenced cells, 48 h, read-out: IC50, MTT assay
[23] = 48 h, proline oxidase-silenced cells, 48 h, read-out: IC50, MTT assay

Compound: COc1ccc(-c2oc3cc(O)c(OC)c(O)c3c(=O)c2OC)cc1 [santin, 5,7-dihydroxy-3,6,4′-trimethoxyflavone]
- p53 level (Western blot) (p53; HeLa cells, santin 6.2–25 μM): significantly upregulated
- expression of p53 (Western blot) (p53; santin 6.2–12.5 μM): slightly increased
- expression of p53 (Western blot) (p53; santin 25–100 μM): gradually decreased
- IC50 [1, 13]: 25.6 ± 2.4 µM
- IC50 [1, 14]: 5.5 ± 1.3 µM
- IC50 [1, 15]: 18.2 ± 2 µM
- IC50 [1, 16]: 11.6 ± 1.4 µM
- IC50 [1, 17]: 5.4 ± 0.8 µM
- IC50 [1, 18]: 6.9 ± 1.1 µM
- proline oxidase expression (Western blot) (proline oxidase; HeLa cells, santin 6.2 and 12.5 μM): increased proline oxidase expression
- proline oxidase expression (Western blot) (proline oxidase; Ishikawa cells, santin): downregulated
- IC50 ([2]; 24 h, 24 h, read-out: IC50 values ± SD in MTT assay): 17.8 ± 2 µM
- IC50 ([2]; 48 h, 48 h, read-out: IC50 values ± SD in MTT assay): 7 ± 0.8 µM
- IC50 [2, 19]: 7.3 ± 1.1 µM
- IC50 [2, 20]: 7.2 ± 0.9 µM
- IC50 [2, 21]: 10.9 ± 1.9 µM
- IC50 [2, 22]: 7.8 ± 1 µM
- IC50 [2, 23]: 11.2 ± 1.3 µM
- IC50 ([3]; 24 h): > 50 µM
- IC50 ([3]; 48 h): > 50 µM
- decrease of prolidase activity (minimum value) (prolidase [4]; HeLa cells, 100 μM santin): 71%
- increase of prolidase activity (maximum) (prolidase [4]; Ishikawa cells, 50 μM santin): 160%
- ROS generation (DCFDA fluorescence) (intracellular ROS; HeLa cells): significant increase
- ROS generation (DCFDA fluorescence) (intracellular ROS; Ishikawa cells): massive ROS generation
- IC50 ([5]; 24 h, read-out: IC50 values ± SD in MTT assay): 12.9 ± 1.1 µM
- IC50 [5, 19]: 5.9 ± 0.9 µM
- IC50 [5, 20]: 5.7 ± 0.8 µM
- IC50 [5, 21]: 5.9 ± 1.1 µM
- IC50 [5, 22]: 11.1 ± 1.9 µM
- IC50 [5, 23]: 14 ± 2 µM
- IC50 ([5]; 48 h, read-out: IC50 values ± SD in MTT assay): 5.1 ± 0.9 µM
- % early apoptotic cells (annexin V/PI plot, lower right quadrant) (HeLa cells [6]; santin 6.2 μM): 27% ± 4%
- % late apoptotic cells (annexin V/PI plot, upper right quadrant) (HeLa cells [6]; santin 6.2 μM): 30% ± 3%
- % early apoptotic cells (annexin V/PI plot, lower right quadrant) (HeLa cells [6]; santin 12.5 μM): 39% ± 5%
- % late apoptotic cells (annexin V/PI plot, upper right quadrant) (HeLa cells [6]; santin 12.5 μM): 38% ± 4%
- decrease of number of colonies (Ishikawa cells [7]; santin 6.2 μM for 48 h): 53%
- decrease of number of colonies (Ishikawa cells [7]; santin 12.5 μM for 48 h): 84%
- % early apoptotic cells (annexin V/PI plot, lower right quadrant) (Ishikawa cells [8]; santin 6.2 μM): 35% ± 4%
- % late apoptotic cells (annexin V/PI plot, upper right quadrant) (Ishikawa cells [8]; santin 6.2 μM): 15% ± 2%
- % early apoptotic cells (annexin V/PI plot, lower right quadrant) (Ishikawa cells [8]; santin 12.5 μM): 55% ± 5%
- % late apoptotic cells (annexin V/PI plot, upper right quadrant) (Ishikawa cells [8]; santin 12.5 μM): 21% ± 3%
- decrease of number of colonies (HeLa cells [9]; santin 6.2 μM for 48 h): 49%
- decrease of number of colonies (HeLa cells [9]; santin 12.5 μM for 48 h): 85%
- IC50 [10]: 12.1 ± 1.7 µM
- prolidase expression (Western blot) (prolidase [11]; HeLa cells): downregulated prolidase expression
- prolidase expression (Western blot) (prolidase [11]; Ishikawa cells): increased its level
- IC50 [12, 13]: 25.6 ± 2.1 µM
- IC50 [12, 14]: 6.2 ± 1 µM
- IC50 [12, 15]: 12.7 ± 1.3 µM
- IC50 [12, 16]: 11 ± 1.4 µM
- IC50 [12, 17]: 5.9 ± 1.1 µM
- IC50 [12, 18]: 4.8 ± 1 µM
